Laboratory results as given in PMC7114565 (Virus Research, 2016).
Values joined by “and” are separate entries in the source; they are usually repeats but may differ in a detail not shown here. Equal values may be shown once. “Also recorded” adds a separate entry of the source.

Experiments:
MERS-CoV EMC/2012 [1] = type: cell-based
SARS-CoV = type: cell-based
[2] = test system: murine hepatitis virus (MHV; strain A59); type: cell-based
[3] = test system: human coronavirus 229E (HCoV-229E); type: cell-based
MERS-CoV EMC/2012 [4] = test system: MERS-CoV EMC/2012
HCoV-NL63 = conditions: cited from earlier work
in vitro [5] = conditions: rhesus monkey
in vitro [6] = conditions: mouse
MERS-CoV EMC/2012 [7] = assay: microbe, parasite or virus in culture; conditions: Middle East respiratory syndrome-related coronavirus, Huh-7, 48 h

C/C=C/C[C@@H](C)[C@@H](O)[C@H]1C(=O)N[C@@H](CC)C(=O)N(C)[C@H](C)C(=O)N(CC)[C@@H](C(C)C)C(=O)N[C@@H](C(C)C)C(=O)N(C)[C@@H](CC(C)C)C(=O)N[C@@H](C)C(=O)N[C@H](C)C(=O)N(C)[C@@H](CC(C)C)C(=O)N(C)[C@@H](CC(C)C)C(=O)N(C)[C@@H](C(C)C)C(=O)N1C [ALV, alisporivir]
decrease in MERS-CoV progeny titer (MERS-CoV EMC/2012 [1]): comparable decrease in progeny titer | reduction of MERS-CoV progeny titer (MERS-CoV EMC/2012 [1]): ~2 log | effect on SARS-CoV infection (SARS-CoV): sensitive; also recorded: near-complete block | reduction in SARS-CoV virus progeny (SARS-CoV): ~1.5 log | decrease of MHV progeny titers [2]: 1 log | reduction of MHV progeny titers [2]: ~2 log | reduction of HCoV-229E production [3]: ~1.5 log and ~2 log | CC50 values times higher than the observed EC50 values (MERS-CoV EMC/2012 [4]): 7–13 times | EC50 (HCoV-NL63): 0.8 µM | reduction in HCoV-NL63 virus progeny (HCoV-NL63): 4 log | CC50 (in vitro [5]): 14.3 ± 1.8 µM | viability (in vitro [6]): > 85% | EC50 (MERS-CoV EMC/2012 [7]): 3.4 ± 1 µM

NC(=O)c1ncn([C@@H]2O[C@H](CO)[C@@H](O)[C@H]2O)n1 [ribavirin]
effect on cell viability (LLC-MK2 cells): gradually lowered the cell viability
